Where two headings read alike, the source gives them in different places.
Key:
Human PTP1B = target: T1, Human PTP1B (Homo sapiens, UniProt P18031); experiment: In vitro phosphatase activity assay (DiFMUP assay); type: biochemical
T1 construct: His6 (N); made in house; host or cells: E. coli BL21 DE3
T1 sequence (P18031 1-435): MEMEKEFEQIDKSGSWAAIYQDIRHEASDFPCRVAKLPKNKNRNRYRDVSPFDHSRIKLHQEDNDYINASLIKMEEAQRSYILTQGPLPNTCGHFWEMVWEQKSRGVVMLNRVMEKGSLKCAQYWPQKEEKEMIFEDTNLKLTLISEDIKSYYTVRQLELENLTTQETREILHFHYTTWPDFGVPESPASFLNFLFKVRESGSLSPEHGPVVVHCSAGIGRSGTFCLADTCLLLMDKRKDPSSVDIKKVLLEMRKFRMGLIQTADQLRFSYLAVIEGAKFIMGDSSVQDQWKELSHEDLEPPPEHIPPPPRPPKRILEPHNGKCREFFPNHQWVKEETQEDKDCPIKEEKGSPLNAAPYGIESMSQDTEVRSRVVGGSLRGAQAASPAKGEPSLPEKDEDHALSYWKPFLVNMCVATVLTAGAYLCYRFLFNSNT
Description: To determine the value of CHBOs in drug discovery, we constructed a synthetically accessible library of CHBOs based on the substrate scope of the reaction we newly developed. […] To explore the relationship between inhibitor activity of 3ak against PTP1B and the stereochemistry, two enantiomers (S, S)-3ak and (R, R)-3ak were synthesized and evalutated in the DiFUMP assay (Figure a). […]
Protein expression and purification7: Human PTP1B construct was subcloned into pET28a(+) vector, which contains an N-terminal His6-tag. BL21 DE3 E. coli cells were transformed as follows: 2 µL of plasmid(100 ng/µL) and 200 µL of DE3 cells were incubated for 30 min on ice, a 45 second heat shock at […], 2 min on ice, recovery with 800 µL SOC for 1 h at 37 ℃ followed by plating on a Kanamycin agar plate (50µg/mL).One colony was picked and used to inoculate 10 mL of LB media supplemented with kanamycin (50µg/mL).When the culture reached OD600 = 0.6, 10mL were transferred to one liter of LB media supplemented with Kanamycin (50 µg/mL) and grown at 37 ℃ to an OD600 = 0.6. Media is transferred to a 16 ℃ incubator. Then, the media was supplemented with 500 µM Isopropyl β-D-1-thiogalactopyranoside (IPTG) at OD600 = 0.8 and incubated for 16 h. Cells were centrifuged (4000 rpm, 20 min) and liquid was decanted. Cells were resuspended in lysis buffer (50 mM HEPES, pH 7.4, 150 mM KCl, 5 mM MgCl2, 5% glycerol, 1 mM phenylmethane sulfonyl fluoride (PMSF), 2 mM 2-mercaptoethanol (β-met)). Cells were lysed in a cell crusher (pressure 1000 bar), the mixed products were collected, centrifuged (12000 rpm, 4°C, 20 min), and the supernatant was left to discard the precipitate. The nickel column was first equilibrated with equilibration solution, and then the protein supernatant was up-sampled twice to bind the protein. The proteins were then gradually eluted with imidazole (10, 20, 60, 200 mM imidazole).
The target protein-containing fractions confirmed by SDS PAGE were placed in […] MWCO protein ultrafiltration tubes and the imidazole were replaced with dialysis buffer (20 mM HEPES, 150 mM KCl, 1 mM MgCl2). After the imidazole was removed cleanly, an equal volume of glycerol was added as a protective solution. When concentration was determined to be greater than or equal to 1 mg /mL, protein was frozen with liquid nit rogen. Protein was then stored in a -80 ℃ freezer.
In Vitro Phosphatase Activity Assays8:Incubate 1 nM purified PTP1B protein with positive control or compound to be tested in reaction buffer (25 mM Bis-Tris propane pH 7.5, […]
50 mM NaCl, 2 mM EDTA, 2 mM DTT) for 10 min at 37°C in a total volume of 90 μL. Add 10 μL of substrate buffer containing DiFMUP (final concentration of 10 μM) to the reaction buffer […]
(§1) The fluorescence intensity at 455 nm was read using a multifunctional reader with 358 nm as the excitation light, and the measured fluorescence value was used to calculate the inhibition rate of the enzyme activity by the sample over the value of the blank wells. The IC50 values of the compounds were calculated by Graphpad Prism 7.0, using a non-linear fit of the inhibition rate to the concentration of the inhibitor. […]

MB231 cells = experiment: Cellular anti-cancer immunity assay (cancer cell growth inhibition with or without IFNγ, CCK8); type: cell-based; conditions: MB231 cell line; 0.5 ng/ml IFNγ or medium alone; 3 days
Description: We further evaluated (S, S)-3ak with a cellular anticancer immunity assay. The assay measures the inhibition of cancer cell growth by compounds with or without cytokine IFNγ. , The synergy of testing compounds and IFNγ in inhibiting cancer cells implicates the testing compound contributes anticancer immunity. The synergy index is defined by the formula index = (IC50 ^IFNγ– – IC50 ^IFNγ+)/IC50 ^IFNγ+. […] In other words, we identified (S, S)-3ak as a promising PTP1B inhibitor, preparing for the coming hit-lead-candidate optimization.
as §1, with “50 mM NaCl, 2 mM EDTA, 2 mM DTT) for 10 min at 37°C in a total volume of 90 μL. […] The fluorescence” for “The fluorescence”
Cellular anti-cancer immunity assay9: MB231 cells were seeded at a density of 5000 cells per well in a 96-well plate and incubated at 37 °C. […] PTP1B inhibitors, including Osunprotafib as the positive control, were added, and cell confluence was monitored for 3 days. […]

[1] = DiFMUP assay at room temperature, positive control ABBV-CLS-484, negative control DMSO
[2] = PTP1B lC50 (μM), DiFMUP assay at room temperature, positive control ABBV-CLS-484, negative control DMSO
[3] = DiFMUP assay at room temperature, positive control ABBV-CLS-484, negative control DMSO, read-out: PTP1B lC50

Cc1ccc2c(c1Br)[C@@](O)([C@H]1C=C(c3ccccc3)C(=O)O1)C(=O)N2Cc1ccccc1 [6g]
PTP1B lC50 (Human PTP1B; [1]): 8.13 ± 0.06 µM

COc1ccc2c(c1)[C@@](O)([C@H]1C=C(c3ccccc3)C(=O)O1)C(=O)N2Cc1ccccc1 [6l]
PTP1B lC50 (Human PTP1B; [1]): 21.65 ± 1.48 µM

O=C1O[C@@H]([C@@]2(O)C(=O)N(Cc3ccccc3)c3cccc(Cl)c32)C=C1c1ccccc1 [6d]
IC50 (Human PTP1B): 10 to 30 µM
IC50 (Human PTP1B; [2]): 17.8 ± 1.2 µM

COc1ccc(C2=C[C@H]([C@@]3(O)C(=O)N(Cc4ccccc4)c4ccccc43)OC2=O)cc1 [6ad]
PTP1B lC50 (Human PTP1B; [1]): 7.82 ± 1.44 µM

O=C1O[C@@H]([C@@]2(O)C(=O)Nc3ccccc32)C=C1c1ccccc1 [6b]
PTP1B lC50 (Human PTP1B; [1]): 6.93 ± 0.77 µM

O=C1O[C@@H]([C@@]2(O)C(=O)N(Cc3ccccc3)c3ccc(Cl)cc32)C=C1c1ccccc1 [6j]
PTP1B lC50 (Human PTP1B; [1]): 15.17 ± 1.02 µM

Cc1ccc2c(c1)C(O)(C1C=C(c3ccccc3)C(=O)O1)C(=O)N2Cc1ccccc1 (stereo not drawn) [6k]
IC50 (Human PTP1B; read-out: PTP1B lC50, DiFMUP assay at room temperature, positive control ABBV-CLS-484, negative control DMSO): 9.08 ± 0.12 µM

O=C1O[C@@H]([C@@]2(O)C(=O)N(Cc3ccc(C(=O)NC45CC6CC(CC(C6)C4)C5)cc3)c3cccc(Br)c32)C=C1c1ccccc1 [6s]
PTP1B lC50 (Human PTP1B; [1]): 2.11 ± 0.22 µM

COc1ccc(C2=C[C@H]([C@@]3(O)C(=O)N(Cc4ccccc4)c4cccc(Br)c43)OC2=O)cc1OC [6ai]
PTP1B lC50 (Human PTP1B; [1]): 22.65 ± 0.75 µM

O=C1O[C@@H]([C@@]2(O)C(=O)N(Cc3ccccc3)c3cccc(Br)c32)C=C1c1ccc2ccccc2c1 [(R, R)-3ak]
IC50 (Human PTP1B): 3.31 ± 0.2 µM

O=C1O[C@@H]([C@@]2(O)C(=O)N(Cc3ccccc3)c3ccc(Cl)c(Cl)c32)C=C1c1ccccc1 [6i]
IC50 (Human PTP1B; [3]): 3.02 ± 0.22 µM

CC1CCC(C(C)C)C(OC(=O)c2ccc(C3=C(c4ccccc4)C(=O)OC3C3(O)C(=O)Nc4ccccc43)cc2)C1 (stereo not drawn) [6au]
IC50 (Human PTP1B): 0.29 to 1.58 µM
IC50 (Human PTP1B; [2]): 1.56 ± 0.24 µM

CC1(C)[C@H]2CC=C(CCOC(=O)c3ccc(CN4C(=O)[C@](O)([C@H]5C=C(c6ccccc6)C(=O)O5)c5c(Br)cccc54)cc3)[C@@H]1C2 [6u]
PTP1B lC50 (Human PTP1B; [1]): 0.29 ± 0.02 µM

O=C1O[C@H]([C@]2(O)C(=O)N(Cc3ccccc3)c3cccc(Br)c32)C=C1c1ccc2ccccc2c1 [(S, S)-3ak]
synergy index = (IC50 IFNγ− – IC50 IFNγ+)/IC50 IFNγ+ (MB231 cells): 3.49
IC50 (Human PTP1B): 0.81 ± 0.1 µM
potency relative to the enantiomer (R, R)-3ak (Human PTP1B; DiFMUP assay): 3 fold
IC50 against PTP1B (Human PTP1B; DiFMUP assay, values in text and figure): submicromolar

COc1ccc2c(c1)N(Cc1ccccc1)C(=O)[C@]2(O)[C@H]1C=C(c2ccccc2)C(=O)O1 [6p]
PTP1B lC50 (Human PTP1B; [1]): 8.23 ± 0.91 µM

O=C1O[C@@H]([C@@]2(O)C(=O)N(Cc3ccccc3)c3cccc(Br)c32)C=C1c1ccccc1 [6e]
IC50 (Human PTP1B; [3]): 2.1 ± 0.31 µM

O=C1OC(C2(O)C(=O)N(Cc3ccccc3)c3cccc(Br)c32)C=C1c1ccc2c(c1)OCO2 (stereo not drawn) [6ah]
IC50 (Human PTP1B): 0.29 to 1.58 µM
IC50 (Human PTP1B; [2]): 0.92 ± 0.18 µM

Cc1ccc(C2=C[C@H]([C@@]3(O)C(=O)N(Cc4ccccc4)c4ccccc43)OC2=O)cc1 [6ab]
IC50 (Human PTP1B; [3]): 6.68 ± 0.88 µM

Cc1ccc(C2=C[C@H]([C@@]3(O)C(=O)N(Cc4ccccc4)c4cccc(Br)c43)OC2=O)cc1 [6ac]
PTP1B lC50 (Human PTP1B; [1]): 9.13 ± 0.62 µM

O=C1O[C@@H]([C@@]2(O)C(=O)N(Cc3ccccc3)c3cccc(I)c32)C=C1c1ccccc1 [6f]
PTP1B lC50 (Human PTP1B; [1]): 8.17 ± 1.06 µM

O=C1O[C@@H]([C@@]2(O)C(=O)Nc3ccccc32)C(c2ccccc2)=C1c1ccccc1 [6am]
PTP1B lC50 (Human PTP1B; [1]): 4.03 ± 0.45 µM

O=C1O[C@@H]([C@@]2(O)C(=O)N(Cc3ccccc3)c3ccccc32)C=C1c1ccccc1 [6a]
IC50 (Human PTP1B): 10 to 30 µM
IC50 (Human PTP1B; [2]): 29.7 ± 0.56 µM

COc1ccc(C2=C[C@H]([C@@]3(O)C(=O)N(Cc4ccccc4)c4cccc(Br)c43)OC2=O)cc1 [6ae]
PTP1B lC50 (Human PTP1B; [1]): 11.17 ± 2.87 µM
